From patent US20240207267A1, “(R)-Glutarimide CRBN Ligands and Methods of Use” (BeiGene Switzerland GmbH, priority 2021, published 2024) come the findings set out here.

Format in all cases: cell-based
The target of test [1] is T1, BTK (TMD-8 cells) (Homo sapiens (Human), UniProt Q06187). As to the kind of experiment: BTK degradation HTRF assay in TMD-8 cells (Test Example 1). The following applies: Table 3; for DC50: 6 h treatment, BTK degradation; for Dmax: TMD8, 6 h treatment, maximum percentage of BTK degradation. The method, then:
1c). […] TMD-8 cells are treated with compounds diluted in 0.2% DMSO, dilution is done according to the following protocol: (1) make 500× stock solution in DMSO from 1 mM by 6-fold dilution, total 8 doses were included; (2) make 2× solution in cell culture medium by transferring 0.5 μl 500× stock solution into 125 μl medium; (3) 15 μl of 2× solution is added to cells and incubate for 6 h.
After 6 h treatment, add 10 μl 4xlysis buffer to each well; seal the plate and incubate 30 min at room temperature on a plate shaker; Once the cells are lysed, 16 μL of cell lysate are transferred to a PE 384-well HTRF detection plate; 4 μL of pre-mixed HTRF antibodies are added to each well; Cover the plate with a plate sealer, spin 1000 rpm for 1 min, Incubate overnight at room temperature; Read on BMG PheraStar with HTRF protocol (337 nm-665 nm-620 nm).
(§1) The IC50 (DC50) value of a compound can be obtained by fitting the following equation
(§2) Y=Bottom+(TOP−Bottom)/(1+((IC50/X)^hillslope))
(§3) Wherein, X and Y are known values, and IC50, Hillslope, Top and Bottom are the parameters obtained by fitting with software. Y is the inhibition percentage (calculated from the equation), X is the concentration of the compound; IC50 is the concentration of the compound when the 50% inhibition is reached. The smaller the IC50 value is, the stronger the inhibitory ability of the compound is. Vice versa, the higher the IC50 value is, the weaker the ability the inhibitory ability of the compound is; Hillslope represents the slope of the fitted curve, generally around 1*; Bottom represents the minimum value of the curve obtained by data fitting, which is generally 0%±20%; Top represents the maximum value of the curve obtained by data fitting, which is generally 100%±20%. The experimental data were fitted by calculating and analyzing with Dotmatics data analysis software.
(TR-FRET usually uses a lanthanide donor and a delayed reading to cut background.)

In test [2] the target is T1, BTK (TMD-8 cells). As to the kind of experiment: BTK degradation HTRF assay in TMD-8 cells (Test Example 3). The settings on record: 6 h treatment, Table 5. As to the method: TMD-8 cells were treated with compounds diluted in 0.2% DMSO, dilution was done according to the following protocol: (1) making 500× stock solution in DMSO from 1 mM by 6-fold dilution, total 8 doses were included; (2) making 2× solution in cell culture medium by transferring 0.5 μl 500× stock solution into […]; (3) adding 15 μl of 2× solution to cells for incubation of 6 h.
After 6 h treatment, 10 μl 4xlysis buffer was added to each well; the plate was sealed and incubated for 30 min at room temperature on a plate shaker; Once the cells was lysed, 16 μL of cell lysate were transferred to a PE 384-well HTRF detection plate; 4 μL of pre-mixed HTRF antibodies were added to each well; the plate was covered with a plate sealer, and then spinned at 1000 rpm for 1 min, then incubated overnight at room temperature; the results were read on BMG PheraStar with HTRF protocol (337 nm-665 nm-620 nm).
as §1, §2
as §3, with “wherein,” for “Wherein,”

The subject of another test is HEK-293 cells. The test is described as follows: HEK-293 cytotoxicity detection (CellTiter-Glo). The settings on record: Homo sapiens, HEK293, 72 h incubation. The method, then: HEK-293 cells were treated with compounds diluted in 0.2% DMSO, dilution was done according to the following protocol: (1) making 500× stock solution in DMSO from 5 mM by 4-fold dilution, total 8 doses were included; (2) making 2× solution in cell culture medium by transferring 0.5ul 500× stock solution into 125ul medium; (3) adding 50ul of 2× solution to cells for incubation of 72 h.
25 μl of the CellTiter-Glo®Reagent [(Promega) - Cat No. G7572] was added to each well in the 96-well plate. The contents were mixed for 2 minutes on an orbital shaker to induce cell lysis. The plate was then allowed to incubate at room temperature for 10 minutes to stabilize luminescent signal. Luminescence was recorded on BMG PheraStar with luminescence protocol.
The IC50 value of a compound can be obtained by fitting the following equation
as §2, §3
A general note: Cellular ATP, detected with luciferase, serves as a proxy for viable cell number.

The target of another test is IRAKM (THP-1 cells) (Homo sapiens (Human), UniProt Q9Y616). As to the kind of experiment: IRAKM degradation HTRF assay in THP-1 cells. The settings on record: 6 h treatment. The method, then: THP-1 cells are treated with compounds diluted in 0.2% DMSO, dilution is done according to the following protocol: (1) make 500× stock solution in DMSO from 5 mM by 5-fold dilution, total 8 doses were included; (2) make 2× solution in cell culture medium by transferring 0.5 μl 500× stock solution into 125 μl medium; (3) 15 μl of 2× solution is added to cells and incubate for 6 h.
Sequence of IRAKM (THP-1 cells) (Q9Y616 whole entry): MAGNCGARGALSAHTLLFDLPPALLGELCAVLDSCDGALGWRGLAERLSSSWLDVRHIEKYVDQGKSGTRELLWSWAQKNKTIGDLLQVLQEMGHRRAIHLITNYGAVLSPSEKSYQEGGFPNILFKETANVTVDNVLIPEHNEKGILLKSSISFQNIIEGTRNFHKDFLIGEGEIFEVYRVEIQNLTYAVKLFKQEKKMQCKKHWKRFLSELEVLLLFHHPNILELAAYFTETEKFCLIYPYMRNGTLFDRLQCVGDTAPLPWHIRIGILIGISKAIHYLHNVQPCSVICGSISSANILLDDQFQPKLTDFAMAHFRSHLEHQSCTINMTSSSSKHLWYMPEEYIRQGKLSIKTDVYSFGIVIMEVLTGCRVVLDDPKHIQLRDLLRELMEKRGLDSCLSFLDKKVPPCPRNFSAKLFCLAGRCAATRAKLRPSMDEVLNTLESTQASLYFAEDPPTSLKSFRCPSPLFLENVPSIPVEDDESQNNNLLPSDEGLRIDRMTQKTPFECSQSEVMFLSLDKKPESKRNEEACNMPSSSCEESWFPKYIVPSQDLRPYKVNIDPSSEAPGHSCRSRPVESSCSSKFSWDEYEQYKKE
After 6 h treatment, add 10 μl 4xlysis buffer to each well; seal the plate and incubate 1 hour at room temperature on a plate shaker; Once the cells are lysed, 16 μL of cell lysate are transferred to a PE 384-well HTRF detection plate(for triple mutant cells, the lysate were diluted by the qual volume 1xlysis buffer before transfer); 4 μL of pre-mixed HTRF antibodies are added to each well; Cover the plate with a plate sealer, spin 1000 rpm for 1 min, Incubate overnight at room temperature; Read on BMG PheraStar with HTRF protocol (337 nm-665 nm-620 nm).
as §1, §2
Wherein, X and Y are known values, and IC50, Hillslope, Top and Bottom are the parameters obtained by fitting with software. Y is the inhibition percentage (calculated from the equation), X is the concentration of the compound; IC50 is the concentration of the compound when the 50% inhibition is reached. […]

T1 sequence (Q06187 whole entry): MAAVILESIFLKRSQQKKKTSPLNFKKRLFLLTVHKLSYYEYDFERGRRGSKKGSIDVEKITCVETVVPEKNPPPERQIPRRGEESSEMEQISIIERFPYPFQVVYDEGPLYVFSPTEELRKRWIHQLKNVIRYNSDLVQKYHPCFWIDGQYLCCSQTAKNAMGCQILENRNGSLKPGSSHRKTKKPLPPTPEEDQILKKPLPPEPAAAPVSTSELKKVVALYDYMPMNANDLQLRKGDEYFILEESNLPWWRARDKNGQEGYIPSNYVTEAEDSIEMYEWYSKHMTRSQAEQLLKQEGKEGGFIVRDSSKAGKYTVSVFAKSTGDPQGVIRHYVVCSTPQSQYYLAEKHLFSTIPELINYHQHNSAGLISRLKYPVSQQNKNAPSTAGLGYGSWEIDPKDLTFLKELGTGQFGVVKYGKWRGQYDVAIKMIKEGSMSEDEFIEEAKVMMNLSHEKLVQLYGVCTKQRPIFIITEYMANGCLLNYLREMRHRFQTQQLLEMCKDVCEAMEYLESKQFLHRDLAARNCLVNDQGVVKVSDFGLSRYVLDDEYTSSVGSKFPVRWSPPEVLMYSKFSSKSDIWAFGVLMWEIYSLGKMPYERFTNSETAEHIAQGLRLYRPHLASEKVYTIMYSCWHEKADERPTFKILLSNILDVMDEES

Turning to `Cc1cc(-c2n[nH]c3ncc(-c4ccc(C5CCN(CCc6ccc(C7CCC(=O)NC7=O)cc6)CC5)cc4)cc23)ccc1CNC(=O)c1nc(C(C)(C)C)no1` (stereo not drawn) [Example 31, 3-(tert-butyl)-N-(4-(5-(4-(1-(4-(2,6-dioxopiperidin-3-yl)phenethyl)piperidin-4-yl)phenyl)-1H-pyrazolo[3,4-b]pyridin-3-yl)-2-methylbenzyl)-1,2,4-oxadiazole-5-carboxamide], at BTK (TMD-8 cells) [1], the half-maximal degradation concentration (DC50) was above 2000 nM and the Dmax turned out to be 12%.
Taken in the same sequence, the figures for `Cc1cc(-c2n[nH]c3ncc(-c4ccc(C5CCN(CCc6cc(F)c([C@H]7CCC(=O)NC7=O)c(F)c6)CC5)cc4)cc23)ccc1CNC(=O)c1nc(C(C)(C)C)no1` [Example 32, (R)-3-(tert-butyl)-N-(4-(5-(4-(1-(4-(2,6-dioxopiperidin-3-yl)-3,5-difluorophenethyl)piperidin-4-yl)phenyl)-1H-pyrazolo[3,4-b]pyridin-3-yl)-2-methylbenzyl)-1,2,4-oxadiazole-5-carboxamide] were 5.33 nM and 97.4%.
As for `Cc1cc(-c2cc(Nc3cccc(N4CCN(CC5CCN(c6ccc(N7CCC(=O)NC7=O)cc6)CC5)CC4)c3)ncn2)c(F)cc1[C@@H](C)NC(=O)c1nc(C(C)(C)C)no1` [Example C39, (R)-3-(tert-butyl)-N-(1-(4-(6-((3-(4-((1-(4-(2,4-dioxotetrahydropyrimidin-1(21)-yl)phenyl)piperidin-4-yl)methyl)piperazin-1-yl)phenyl)amino)pyrimidin-4-yl)-5-fluoro-2-methylphenyl)ethyl)-1,2,4-oxadiazole-5-carboxamide], on BTK (TMD-8 cells) [2], the half-maximal degradation concentration (DC50) was found to be 242 nM. The same compound displayed a concentration for half-maximal inhibition (IC50) in the test with HEK-293 cells above 10000 nM.
Turning to `Cc1cc(-c2cc(Nc3ccc(N4CCN(CCc5cc(F)c([C@H]6CCC(=O)NC6=O)c(F)c5)CC4)cn3)ncn2)ccc1[C@@H](C)NC(=O)c1nc(C(C)(C)C)no1` [Example C41, 3-(tert-butyl)-N—((R)-1-(4-(6-((5-(4-(4-((R)-2,6-dioxopiperidin-3-yl)-3,5-difluorophenethyl)piperazin-1-yl)pyridin-2-yl)amino)pyrimidin-4-yl)-2-methylphenyl)ethyl)-1,2,4-oxadiazole-5-carboxamide], on BTK (TMD-8 cells) [2], the DC50 is 2.73 nM. The compound also displayed an IC50 in the test on HEK-293 cells above 10000 nM.
Regarding `CCc1nc(C(N)=O)c(Nc2ccc(N3CCC(N4CCN(CCc5cc(F)c(C6CCC(=O)NC6=O)c(F)c5)CC4)CC3)c(OC)c2)nc1NC1CCOCC1` (stereo not drawn) [Example D42, 3-((4-(4-(4-(4-(2,6-dioxopiperidin-3-yl)-3,5-difluorophenethyl)piperazin-1-yl)piperidin-1-yl)-3-methoxyphenyl)amino)-6-ethyl-5-((tetrahydro-2H-pyran-4-yl)amino)pyrazine-2-carboxamide], the DC50 at IRAKM (THP-1 cells) stood at 2.8 nM.

A word on the DC50: it is the concentration at which degradation of the target reaches its halfway point. A lower DC50 goes with a more potent degrader. What is called Dmax is the largest share of the target that was removed. Low readings indicate a partial loss of target, high ones a fuller loss of target. As usually defined, the IC50 is the concentration at which inhibition is half-maximal. Read a low IC50 as greater potency.
